What was measured:
Type in all cases: in vivo
[1] = tested on: Digitaria sanguinalis (DIGSA); experiment: Post-emergence herbicidal efficacy at 320 g/ha, greenhouse pot test; conditions: visual rating vs untreated control after about 3 weeks
In short: (§1)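 Applied onto green plant parts as suspension or emulsion at a 600 L/ha water rate, containing 0.5% additive. Potted weeds in sandy loam were treated at one leaf and assessed visually versus controls about three weeks later.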

Poa annua (POAAN) [2] = experiment: as above; conditions: visual rating vs untreated control after about 3 weeks
In short: as §1

Veronica persica (VERPE) [3] = experiment: as above; conditions: 320 g/ha, visual rating vs untreated control after about 3 weeks
In short: as §1

[4] = tested on: Alopecurus myosuroides (ALOMY); experiment: Post-emergence herbicidal efficacy at 80 g/ha, greenhouse pot test; conditions: visual rating vs untreated control after about 3 weeks
Method: (§2) Seeds of monocotyledonous and dicotyledonous weeds and crop plants were placed in sandy loam in plastic or organic planting pots, covered with soil and cultivated in a greenhouse under controlled growth conditions. 2 to 3 weeks after sowing, the test plants were treated at the one-leaf stage. The compounds of the invention, formulated in the form of wettable powders (WP) or as emulsion concentrates (EC), were then sprayed onto the green parts of the plants as aqueous suspension or emulsion with addition of 0.5% additive at a water application rate of 600 l/ha (converted). After the test plants had been kept in the greenhouse under optimum growth conditions for about 3 weeks, the activity of the preparations was rated visually in comparison to untreated controls. For example, 100% activity=the plants have died, 0% activity=like control plants. Tables B1 to B6 below show the effects of selected compounds of the general formula (I) according to Table 1 on various harmful plants and an application rate corresponding to 80 g/ha, which were obtained by the experimental procedure mentioned above.

Viola tricolor (VIOTR) [5] = experiment: as above; conditions: visual rating vs untreated control after about 3 weeks
Method: as §2

[6] = tested on: Abutilon theophrasti (ABUTH); experiment: Pre-emergence herbicide efficacy at 320 g/ha, greenhouse pot test; conditions: visual scoring vs untreated control after about 3 weeks
In short: (§3)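 Seeds sown in sandy loam, covered; formulated compound (WP or EC, 0.5% additive) applied to soil surface at 600 L/ha water; pots kept in greenhouse under good growth conditions; visual % damage scored at about 3 weeks relative to untreated.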

[7] = tested on: Amaranthus retroflexus (AMARE); experiment: as above; conditions: visual scoring vs untreated control after about 3 weeks
In short: as §3

Bassia scoparia (KCHSC) [8] = experiment: as above; conditions: 320 g/ha, visual scoring vs untreated control after about 3 weeks
In short: as §3

[9] = tested on: Digitaria sanguinalis (DIGSA); experiment: as above; conditions: visual scoring vs untreated control after about 3 weeks
In short: as §3

[10] = tested on: Echinochloa crus-galli (ECHCG); experiment: as above; conditions: visual scoring vs untreated control after about 3 weeks
In short: as §3

Lolium rigidum (LOLRI) = experiment: as above; conditions: visual scoring vs untreated control after about 3 weeks
In short: as §3

[11] = tested on: Matricaria inodora (MATIN); experiment: as above; conditions: visual scoring vs untreated control after about 3 weeks
In short: as §3

Poa annua (POAAN) [12] = experiment: as above; conditions: visual scoring vs untreated control after about 3 weeks
In short: as §3

Setaria viridis (SETVI) [13] = experiment: as above; conditions: visual scoring vs untreated control after about 3 weeks
In short: as §3

Stellaria media (STEME) [14] = experiment: as above; conditions: visual scoring vs untreated control after about 3 weeks
In short: as §3

Veronica persica (VERPE) [15] = experiment: as above; conditions: visual scoring vs untreated control after about 3 weeks
In short: as §3

[16] = tested on: Abutilon theophrasti (ABUTH); experiment: Pre-emergence herbicide efficacy at 80 g/ha, greenhouse pot test; conditions: visual scoring vs untreated control after about 3 weeks
Description: (§4) Seeds of monocotyledonous and dicotyledonous weed plants and crop plants were placed in plastic or organic planting pots and covered with soil. The compounds of the invention, formulated in the form of wettable powders (WP) or as emulsion concentrates (EC), were then applied to the surface of the covering soil as aqueous suspension or emulsion with addition of 0.5% additive at a water application rate of […] (converted). After the treatment, the pots were placed in a greenhouse and kept under good growth conditions for the test plants. After about 3 weeks, the effect of the preparations was scored visually in comparison with untreated controls as percentages. For example, 100% activity=the plants have died, 0% activity=like control plants. Tables D1 to D12 below show the effects of selected compounds of the general formula (I) according to Table 1 on various harmful plants and an application rate corresponding to 80 g/ha, which were obtained by the experimental procedure mentioned above.

[17] = tested on: Amaranthus retroflexus (AMARE); experiment: as above; conditions: visual scoring vs untreated control after about 3 weeks
Description: as §4

[18] = tested on: Digitaria sanguinalis (DIGSA); experiment: as above; conditions: visual scoring vs untreated control after about 3 weeks
Description: as §4

[19] = tested on: Matricaria inodora (MATIN); experiment: as above; conditions: visual scoring vs untreated control after about 3 weeks
Description: as §4

[20] = tested on: Polygonum convolvulus (POLCO); experiment: as above; conditions: visual scoring vs untreated control after about 3 weeks
Description: as §4

Viola tricolor (VIOTR) [21] = experiment: as above; conditions: visual scoring vs untreated control after about 3 weeks
Description: as §4

[22] = tested on: Abutilon theophrasti (ABUTH); experiment: Post-emergence herbicidal efficacy at 320 g/ha, greenhouse pot test; conditions: visual rating vs untreated control after about 3 weeks
In short: as §1

[23] = tested on: Amaranthus retroflexus (AMARE); experiment: as above; conditions: visual rating vs untreated control after about 3 weeks
In short: as §1

Bassia scoparia (KCHSC) [24] = experiment: as above; conditions: visual rating vs untreated control after about 3 weeks
In short: as §1

Stellaria media (STEME) [25] = experiment: as above; conditions: visual rating vs untreated control after about 3 weeks
In short: as §1

[26] = tested on: Amaranthus retroflexus (AMARE); experiment: Post-emergence herbicidal efficacy at 80 g/ha, greenhouse pot test; conditions: visual rating vs untreated control after about 3 weeks
Method: as §2

[27] = tested on: Polygonum convolvulus (POLCO); experiment: as above; conditions: visual rating vs untreated control after about 3 weeks
Method: as §2

Veronica persica (VERPE) [28] = experiment: as above; conditions: visual rating vs untreated control after about 3 weeks
Method: as §2

[29] = tested on: Alopecurus myosuroides (ALOMY); experiment: Pre-emergence herbicide efficacy at 320 g/ha, greenhouse pot test; conditions: visual scoring vs untreated control after about 3 weeks
In short: as §3

Veronica persica (VERPE) [30] = experiment: Pre-emergence herbicide efficacy at 80 g/ha, greenhouse pot test; conditions: visual scoring vs untreated control after about 3 weeks
Description: as §4

[31] = tested on: Alopecurus myosuroides (ALOMY); experiment: Post-emergence herbicidal efficacy at 320 g/ha, greenhouse pot test; conditions: visual rating vs untreated control after about 3 weeks
In short: as §1

[32] = tested on: Alopecurus myosuroides (ALOMY); experiment: Pre-emergence herbicide efficacy at 80 g/ha, greenhouse pot test; conditions: visual scoring vs untreated control after about 3 weeks
Description: as §4

Setaria viridis (SETVI) [33] = experiment: as above; conditions: visual scoring vs untreated control after about 3 weeks
Description: as §4

| Compound | Post-emergence efficacy against Digitaria sanguinalis (DIGSA) [1] | Post-emergence efficacy against Poa annua (POAAN) (Poa annua (POAAN) [2]) | Post-emergence efficacy against Veronica persica (VERPE) (Veronica persica (VERPE) [3]) | Post-emergence efficacy against Alopecurus myosuroides (ALOMY) [4] | Post-emergence efficacy against Viola tricolor (VIOTR) (Viola tricolor (VIOTR) [5]) | Pre-emergence efficacy against Abutilon theophrasti (ABUTH) [6] | Pre-emergence efficacy against Amaranthus retroflexus (AMARE) [7] | Pre-emergence efficacy against Bassia scoparia (KCHSC) (Bassia scoparia (KCHSC) [8]) | Pre-emergence efficacy against Digitaria sanguinalis (DIGSA) [9] | Pre-emergence efficacy against Echinochloa crus-galli (ECHCG) [10] | Pre-emergence efficacy against Matricaria inodora (MATIN) [11] | Pre-emergence efficacy against Poa annua (POAAN) (Poa annua (POAAN) [12]) | Pre-emergence efficacy against Setaria viridis (SETVI) (Setaria viridis (SETVI) [13]) | Pre-emergence efficacy against Stellaria media (STEME) (Stellaria media (STEME) [14]) | Pre-emergence efficacy against Veronica persica (VERPE) (Veronica persica (VERPE) [15]) | Pre-emergence efficacy against Abutilon theophrasti (ABUTH) [16] | Pre-emergence efficacy against Amaranthus retroflexus (AMARE) [17] | Pre-emergence efficacy against Matricaria inodora (MATIN) [19] | Pre-emergence efficacy against Polygonum convolvulus (POLCO) [20] | Pre-emergence efficacy against Viola tricolor (VIOTR) (Viola tricolor (VIOTR) [21]) | further results |
| --- | --- | --- | --- | --- | --- | --- | --- | --- | --- | --- | --- | --- | --- | --- | --- | --- | --- | --- | --- | --- | --- |
| Cc1cc(C)c(-c2cc(C(F)F)on2)c(Oc2ncc(Cl)cn2)n1 [Example I-10] | 100% | 100% | 90% | 80% | 100% | 100% | 100% | 90% | 90% | 100% | 100% | 90% | 90% | 100% | 100% | 90% | 90% | 90% | 90% | 100% | Pre-emergence efficacy against Lolium rigidum (LOLRI) (Lolium rigidum (LOLRI)): 90%; Pre-emergence efficacy against Digitaria sanguinalis (DIGSA) [18]: 90% |
| Cc1cc(C)c(-c2cc(C(F)F)on2)c(Oc2ncc(F)cn2)n1 [Example I-3] | 90% | 100% | 100% | 90% | 100% | 100% | 100% | 100% | 100% | 100% | 100% | 100% | 100% | 100% | 100% | – | 100% | 100% | 90% | 100% | Post-emergence efficacy against Abutilon theophrasti (ABUTH) [22]: 90%; Post-emergence efficacy against Amaranthus retroflexus (AMARE) [23]: 90%; Post-emergence efficacy against Bassia scoparia (KCHSC) (Bassia scoparia (KCHSC) [24]): 100%; Post-emergence action against Stellaria media (STEME) (Stellaria media (STEME) [25]): 90%; Post-emergence efficacy against Amaranthus retroflexus (AMARE) [26]: 90%; Post-emergence efficacy against Polygonum convolvulus (POLCO) [27]: 100%; Post-emergence efficacy against Veronica persica (VERPE) (Veronica persica (VERPE) [28]): 80%; Pre-emergence efficacy against Alopecurus myosuroides (ALOMY) [29]: 100%; Pre-emergence efficacy against Digitaria sanguinalis (DIGSA) [18]: 100%; Pre-emergence efficacy against Veronica persica (VERPE) (Veronica persica (VERPE) [30]): 80% |
| Cc1cc(C)c(-c2cc(C(F)Cl)no2)c(Oc2ncc(Cl)cn2)n1 (stereo not shown) [Example I-5] | 90% | – | 100% | 80% | 80% | 100% | 100% | 100% | 100% | 90% | 100% | 100% | 100% | 100% | 90% | 90% | 100% | 90% | 90% | 90% | Post-emergence efficacy against Alopecurus myosuroides (ALOMY) [31]: 100%; Post-emergence efficacy against Amaranthus retroflexus (AMARE) [23]: 100%; Post-emergence efficacy against Bassia scoparia (KCHSC) (Bassia scoparia (KCHSC) [24]): 90%; Post-emergence action against Stellaria media (STEME) (Stellaria media (STEME) [25]): 90%; Post-emergence efficacy against Amaranthus retroflexus (AMARE) [26]: 100%; Pre-emergence efficacy against Alopecurus myosuroides (ALOMY) [29]: 100%; Pre-emergence efficacy against Alopecurus myosuroides (ALOMY) [32]: 90%; Pre-emergence efficacy against Setaria viridis (SETVI) (Setaria viridis (SETVI) [33]): 90%; Pre-emergence efficacy against Veronica persica (VERPE) (Veronica persica (VERPE) [30]): 90% |

From patent US20230303549A1, “SUBSTITUTED HETEROARYLOXYPYRIDINES, THE SALTS THEREOF AND THEIR USE AS HERBICIDAL AGENTS” (Bayer Aktiengesellschaft, priority 2020, published 2023)
